{"source": "patent US20150045322A1", "about": "“COMBINATION TREATMENT COMPRISING SULPHATED GLYCOSAMINOGLYCANS FOR INDUCING LABOR” (DILAFOR AB, priority 2012, published 2015)", "key": {"[1]": {"test_system": "Human uterine smooth muscle cells", "test": "Intracellular Ca2+ with Fluo-4 and confocal live cell imaging", "type": "cell-based", "excerpt": "Human uterine smooth muscle cells were established in a culture. A method to measuring intracellular Ca^2+ with the calcium indicator dye Fluo-4 and live cell imaging with confocal microscopy was established for the cells."}, "[2]": {"details": "comparison value for heparin, species not stated; cited from earlier work"}}, "note": "Positions of bridges follow the written chain, without caps; N, C: chain ends. Non-standard residues stand in square brackets, D forms with d. Residues, ends and D or L forms follow the SMILES beside them. Orn = NCCC[C@H](N)C(=O)O; Mpa = O=C(O)CCS", "data": [{"compound": "NCCOB(c1ccccc1)c1ccccc1", "note": "[2-APB, 2-Aminoethoxydiphenyl borate]", "values": [{"measurement": "effect on oxytocin and oxytocin/DF01 stimulated Ca2+-transport", "setting": "[1]; 100 μM, 30 min of incubation", "result": "decreased strongly"}]}, {"compound": "CCOc1ccc(C[C@H]2NC(=O)CCSSC[C@@H](C(=O)N3CCC[C@H]3C(=O)N[C@@H](CCCN)C(=O)NCC(N)=O)NC(=O)[C@H](CC(N)=O)NC(=O)[C@H]([C@@H](C)O)NC(=O)[C@H]([C@@H](C)CC)NC2=O)cc1", "note": "[Atosiban] ([Mpa][dY](Et)ITNCP[Orn]G-NH2; disulfide 1-6)", "values": [{"measurement": "effect on Ca2+ transport by oxytocin and the combination oxytocin/DF01", "setting": "[1]; 10^−6 M", "result": "clearly inhibited"}]}, {"compound": "CC[C@H](C)[C@@H]1NC(=O)[C@H](Cc2ccc(O)cc2)NC(=O)[C@@H](N)CSSC[C@@H](C(=O)N2CCC[C@H]2C(=O)N[C@@H](CC(C)C)C(=O)NCC(N)=O)NC(=O)[C@H](CC(N)=O)NC(=O)[C@H](CCC(N)=O)NC1=O", "note": "[oxytocin]", "values": [{"measurement": "concentration giving maximum effect on Ca2+-influx to the cytosol", "setting": "[1]; dose-dependent effect", "result": 0.05, "unit": "IU/ml"}]}, {"compound": "heparin", "values": [{"measurement": "corresponding (subcutaneous) bioavailability", "setting": "[2]", "result": "about 10%"}]}]}
